Values after ≈ are worked out from the molar mass of the structure shown. Where two headings read alike, the source gives them in different places. Blank lines part the entries; values can stand above or below the molecule they belong to. Residues, ends and D or L forms follow the SMILES beside them.
Columns and labels:
[1] = tested on: Staphylococcus aureus (SA15192); experiment: microbe, parasite or virus in culture; format: cell-based; settings: 16 h
Excerpt: (§1) The standard strain of Staphylococcus aureus (S. aureus, ATCC6538), Escherichia coli (E. coli, ATCC25922), Pseudomonas aeruginosa (P. aeruginosa, ATCC9027), Acinetobacter baumannii (A. baumannii, ATCC19606) and Candida albicans (C. albicans, ATCC/0331) used in this experiment was purchased from the microbial strain collection center of Guangdong Province. The methicillin resistant strain of Staphylococcus aureus (MRSA, SAZ) and clinically isolated antibiotic-resistance strains (SA115775 and SA15192) were clinically isolated from the First Affiliated Hospital of Kunming Medical University. The strains of C. albicans were cultured in 1/3 YM Medium (HB0297-1) + 2/3 RPMI 1640 medium (10-040-CVR, Corning), and other bacterial strains were cultured in Luria-Bertani (LB: 2 g tryptone, 1 g yeast extract, 2 g sodium chloride and 200 ml deionized water) broth.
(§2) Briefly, bacteria strains were diluted and adjusted to the concentration of 2 × 10^5 CFU/ml using RPMI 1640 medium. Samples were prepared as a stock solution in saline, and then diluted to a series of concentrations. 100 μl bacterial suspension and 100 μl samples at the indicated concentration were put together in 96-well plates and incubated at 37°C for 16 h. Finally, an absorbance at 600 nm was measured by a microplate reader to estimate bacterial growth. The MIC was defined as the lowest concentration where the bacterial growth could not be detected completely.

[2] = tested on: Staphylococcus aureus (SA115775); experiment: microbe, parasite or virus in culture; format: cell-based; settings: 16 h
Excerpt: as §1, §2

[3] = tested on: methicillin-resistant Staphylococcus aureus (MRSA-Z); experiment: microbe, parasite or virus in culture; format: cell-based; settings: 16 h
Excerpt: as §1, §2

[4] = tested on: Staphylococcus aureus (ATCC6538); experiment: microbe, parasite or virus in culture; format: cell-based
Excerpt: as §1, §2

S. aureus (ATCC6538) [5] = experiment: Staphylococcus aureus intraperitoneal infection model; format: in vivo, C57BL/6 mice; settings: CFU 4 h after administration, n = 6
Description: S. aureus (ATCC6538) and methicillin resistant strain of Staphylococcus aureus (MRSA, SAZ) were resuspended by saline with the concentration of 1 × 10^9 CFU/ml. […] 2 h later, samples were intraperitoneally injected with the concentration indicated. After 4 h of administration, mice were sacrificed, blood was collected via retro-orbital bleeding and lungs were harvested and homogenized in 1 ml of saline with a hand tissue grinder. 10-fold serial dilutions of the homogenates and blood were made in pyrogen-free NaCl and equal volumes were plated on LB agar plates and incubated at 37°C. CFU were counted after 24 h.
After 4 h of administration, mice were sacrificed, blood (A,C) and lung (B,D) were collected for the measurement of bacterial loads. Data represent mean ± SD values of six independent experiments. *p < 0.05, **p < 0.01, ***p < 0.001.

[6] = tested on: methicillin-resistant S. aureus (MRSA-Z); experiment: Bacterial killing kinetic assay; format: cell-based, Staphylococcus aureus; settings: 1 ×, 5 × and 10 × MIC; RPMI 1640 with 10% FBS, 37°C
Description: (§3) The bacterial killing kinetic assay was performed according to the previous method with minor modifications ([Wei et al., 2015]). S. aureus (ATCC6538) and methicillin resistant strain of Staphylococcus aureus (MRSA, SAZ) were washed three times with saline and then resuspended with RPMI 1640 medium containing 10% FBS at the concentration of 2 × 10^5 CFU/ml. […] Ten microliter aliquots were extracted at each time point and diluted with fresh broth for 100 times, 100 μl of the dilution was seeded on agar plates. After incubation at 37°C for 24 h, the viable colonies were determined.
(§4) Ten microliter aliquots were extracted at each time point and diluted with fresh broth for 100 times, 100 μl of the dilution was seeded on agar plates. After incubation at 37°C for 24 h, the viable colonies were determined for the killing kinetic analysis. Data represent mean ± SD values of three independent experiments. *p < 0.05, **p < 0.01, ***p < 0.001.

S. aureus (ATCC6538) [7] = experiment: Bacterial killing kinetic assay; format: cell-based, Staphylococcus aureus; settings: 1 ×, 5 × or 10 × MIC; RPMI 1640 with 10% FBS, 37°C; not completely killed in the time given
Description: as §3, §4

[8] = tested on: Acinetobacter baumannii (ATCC19606); experiment: MIC, broth dilution; format: cell-based; settings: A. baumannii ATCC19606, 37°C, 16 h
Excerpt: as §1
as §2, with “100 μl bacterial suspension and 100 μl samples at the indicated concentration were put together in 96-well plates and incubated at 37°C for 16 h.” left out

[9] = tested on: Pseudomonas aeruginosa (ATCC9027); experiment: MIC, broth dilution; format: cell-based; settings: P. aeruginosa ATCC9027, 37°C, 16 h
Excerpt: as §1
as §2, with “100 μl bacterial suspension and 100 μl samples at the indicated concentration were put together in 96-well plates and incubated at 37°C for 16 h.” left out

[10] = tested on: Escherichia coli (ATCC25922); format: cell-based; settings: E. coli ATCC25922; broth dilution, 37°C, 16 h
Excerpt: as §1, §2

HEK293T cells = settings: up to 169.01 μM, 24 h, CCK8, absorbance 450 nm; 3 independent experiments
[11] = tested on: S. aureus (ATCC6538, MRSA-Z, SA15192, SA115775); settings: 4.23 mM in 100% human plasma, 0-10 h, 37°C, disk diffusion, zone of inhibition, two independent experiments
Description: Residual antibacterial activity for each incubation time point was evaluated by disk diffusion assay. In brief, bacteria were seeded on nutrient agar plates, 6 mm paper disks were placed on top and 10 μl aliquots of the plasma-peptide mixture was added to the paper disks. After 24 h incubation, the inhibitory zones against S. aureus (ATCC6538, MRSA-Z, SA15192, SA115775) were measured and recorded.
Data represent mean ± SD of two independent experiments.

in vitro = settings: human, human plasma
Description: After incubation for 0, 2, 4, 6, 8 and 10 h at 37°C, an aliquot of 10 μl sample was taken for protein precipitation with an equal volume of 4% H3PO4, the mixture was vortex-mixed for 2 min and then centrifuged at 13000 rpm for 15 min at 4°C. 3 μl of supernatant was analyzed using reverse-phase high performance liquid chromatography (RP-HPLC), and the remaining peptide was calculated through the integrated peak area.

[12] = tested on: human mature red blood cells; settings: 1.32–169.01 μM, 30 min, 37°C, absorbance 540 nm, 3 independent experiments
Description: (§5) Hemolysis of testing sample was calculated as the percentage of Triton X-100-induced hemolysis.
as §5

[13] = tested on: Candida albicans (ATCC/0331); format: cell-based; settings: C. albicans ATCC/0331; broth dilution, 37°C, 16 h
Excerpt: as §1, §2

C57BL/6 mice = experiment: In vivo acute toxicity assay; set-up: species or system mouse; settings: single dose 20 mg/kg and 40 mg/kg, intravenous (tail vein), male C57BL/6, n = 10, recorded 12-72 h
Description: Male C57BL/6 mice aged 6–8 weeks were randomly divided into 2 groups with 10 mice in each group. […] Then the death of mice was recorded at 12 h, 24 h, 36 h, 48 h, 60 h and 72 h, respectively.
[picture] Supplementary Figure 1. […] Male C57BL/6 mice aged 6–8 weeks were randomly divided into 2 groups (n = 10). […] Then the death of mice was recorded at 12 h, 24 h, 36 h, 48 h, 60 h and 72 h respectively.

MIC ([1]; Staphylococcus aureus, clinical isolate SA15192, broth dilution, RPMI 1640, 2 × 10^5 CFU/ml, 37°C, read-out: MIC): 15.5 µM (≈ 5.91 µg/mL) | MIC ([2]; Staphylococcus aureus, clinical isolate SA115775, broth dilution, RPMI 1640, 2 × 10^5 CFU/ml, 37°C, read-out: MIC): 62.1 µM (≈ 23.6 µg/mL) | MIC ([3]; Staphylococcus aureus, MRSA-Z, broth dilution, RPMI 1640, 2 × 10^5 CFU/ml, 37°C, absorbance 600 nm, read-out: MIC): > 124 µM | MIC ([4]; Staphylococcus aureus, S. aureus ATCC6538, broth dilution, RPMI 1640, 2 × 10^5 CFU/ml, 37°C, 16 h, absorbance 600 nm, read-out: MIC): 1.94 µM (≈ 0.738 µg/mL)
Molecule: COc1cccc(OC)c1C(=O)N[C@@H]1C(=O)N2[C@@H]1SC(C)(C)[C@@H]2C(=O)O [Methicillin, methicillin]

Molecule: CN[C@H](CC(C)C)C(=O)N[C@H]1C(=O)N[C@@H](CC(N)=O)C(=O)N[C@H]2C(=O)N[C@H]3C(=O)N[C@H](C(=O)N[C@H](C(=O)O)c4cc(O)cc(O)c4-c4cc3ccc4O)[C@H](O)c3ccc(c(Cl)c3)Oc3cc2cc(c3O[C@@H]2O[C@H](CO)[C@@H](O)[C@H](O)[C@H]2O[C@H]2C[C@](C)(N)[C@H](O)[C@H](C)O2)Oc2ccc(cc2Cl)[C@H]1O [Vancomycin, vancomycin]
MIC ([1]; Staphylococcus aureus): 2.16 µM (≈ 3.13 µg/mL) | MIC ([2]; Staphylococcus aureus): 1.08 µM (≈ 1.57 µg/mL) | MIC ([3]; Staphylococcus aureus, MRSA): 0.54 µM (≈ 0.783 µg/mL) | MIC ([4]; Staphylococcus aureus, ATCC6538, 16 h): 1.08 µM (≈ 1.57 µg/mL) | Dissemination of S. aureus (ATCC6538) from the peritoneal cavity to the blood (S. aureus (ATCC6538) [5]; GW18 2, 4, 8 mg/kg or vancomycin 2, 4 mg/kg ip 2 h after infection (2 × 10^8 CFU/mouse ip)): significantly suppressed | Dissemination of S. aureus (ATCC6538) from the peritoneal cavity to the lung (S. aureus (ATCC6538) [5]; GW18 2, 4, 8 mg/kg or vancomycin 2, 4 mg/kg ip 2 h after infection): significantly suppressed | Time to completely kill the MRSA-Z [6]: 240 min | Time to completely kill the S. aureus (S. aureus (ATCC6538) [7]): > 240 min

Molecule: colistin
MIC [8]: 0.56 µM | MIC [9]: 0.56 µM | MIC [10]: 0.56 µM

Molecule: C[C@H](NC(=O)CNC(=O)[C@H](Cc1c[nH]c2ccccc12)NC(=O)CN)C(=O)N[C@@H](CCCCN)C(=O)N[C@@H](CCCNC(=N)N)C(=O)N[C@@H](Cc1c[nH]c2ccccc12)C(=O)NCC(=O)N[C@@H](CCCCN)C(=O)N[C@@H](CCCNC(=N)N)C(=O)NCC(=O)N[C@@H](Cc1c[nH]c2ccccc12)C(=O)N[C@@H](CCCCN)C(=O)N[C@@H](Cc1c[nH]c2ccccc12)C(=O)N[C@@H](CCCCN)C(=O)N[C@@H](CCCNC(=N)N)C(=O)N[C@@H](Cc1c[nH]cn1)C(=O)N[C@@H](Cc1c[nH]c2ccccc12)C(N)=O [GW18] (H-GWGAKRWGKRGWKWKRHW-NH2)
MIC ([1]; clinical isolate SA15192, broth dilution, RPMI 1640, 2 × 10^5 CFU/ml, 37°C, read-out: MIC): 1.32 µM (≈ 3.12 µg/mL) | MIC ([2]; clinical isolate SA115775, broth dilution, RPMI 1640, 2 × 10^5 CFU/ml, 37°C, read-out: MIC): 1.32 µM (≈ 3.12 µg/mL) | MIC ([3]; MRSA-Z, broth dilution, RPMI 1640, 2 × 10^5 CFU/ml, 37°C, absorbance 600 nm, read-out: MIC): 1.32 µM (≈ 3.12 µg/mL) | MIC ([4]; S. aureus ATCC6538, broth dilution, RPMI 1640, 2 × 10^5 CFU/ml, 37°C, 16 h, absorbance 600 nm, read-out: MIC): 1.32 µM (≈ 3.12 µg/mL) | Cytotoxicity on HEK293T (HEK293T cells): no obvious cytotoxicity | Antibacterial activity against S. aureus after incubation in human plasma [11]: did not significantly affect | remaining at 10 h, 4.23 μM (in vitro): 57.6% | Hemolytic activity [12]: no obvious hemolytic activity | MIC [13]: >20 µM | MIC [10]: 5.28 µM (≈ 12.5 µg/mL) | Acute toxicity (death of mice) (C57BL/6 mice): no acute toxicity
